Values quoted from earlier work in PMC12690571, “Green Synthesis of a Hyaluronan-Based Multimeric A9 Peptide System: Polysaccharide-A9 Conjugate with Enhanced HER2 Receptor Binding Affinity and Potential Biomedical Applications as an Active Material” (Biomacromolecules, 2025).

Test system: HER2 receptor
Set-up: method as in not printed at the place
Conditions: A9 peptide; introduction, earlier work, ref not given

In the case of H-QDVNTAVAW-NH2 [A9], the “binding affinity to HER2 receptor (in words)” value is listed as “binds with high affinity”.
